Here are results for 16 compounds from patent publication US12257243B2, “5-hydroxy-7-oxabicyclo[2.2.1]heptane-2-carboxamide derivatives for inducing chondrogenesis for treating joint damage” (NOVARTIS AG, priority 2018, dated 2025).

Read-outs that look alike come from different tables or passages of the source.

In this experiment the test system is ALP in normal human articular chondrocytes (NHACs). Description: Alkaline Phosphatase (ALP) activity assay (staining and quantitation) in NHACs, prevention of chondrocyte hypertrophy. It counts as cell-based. The conditions noted are these: human IL-1 beta 10 ng/mL, 12 days; for IC50: Fast Blue RR staining, high content imaging, read-out: ALP in NHAC IC50; for Emax / ALP in NHAC (% Efficacy): value in parentheses; for Emax: read-out: ALP in NHAC (% Efficacy). As for the experimental part: The compounds of the present invention were evaluated in the Alkaline Phosphatase (ALP) activity assay to determine the ability of the compounds to prevent chondrocyte hypertrophy in normal human articular chondrocytes (NHACs).
Normal human articular chondrocytes (NHACs) were purchased from PromoCell (Heidelberg, Germany) and grown in Chondrocyte Growth Medium (CGM; Lonza, Walkersville, Md.).
NHACs were expanded in Chondrocyte Growth Medium (CGM) from Lonza until they reached a 60-80% confluency. To initiate differentiation, 7,500 cells were plated/well with indicated test compound dose in 384-well Cell Carrier Ultra plates (Perkin Elmer) with DMEM (SH30022—HyClone) containing 10% FBS (35-015-CV—Corning), 1% Pen/Strep antibiotics (SV30010—HyClone), and 1% Normocin (50 mg/mL—InvivoGen). Cells with test compounds were incubated at 37° C., 5% CO2 for 5 hours and then added human IL-1 beta (AF-200-1B—Peprotech) to each well at a final concentration of 10 ng/mL and incubated at 37° C., 5% CO2 for 12 days.
To detect the presence of hypertrophic cells, NHACs were fixed with 4% paraformaldehyde and Hoechst 33342 (Invitrogen) dye for 30 minutes, rinsed in PBS, then stained with Fast Blue RR Salt (F0500—Sigma) with Naphthol AS-MX Phosphate Alkaline Solution, 0.25% (855—Sigma-Aldrich).
The staining was imaged by fluorescent microscopy, using the 561 nm wavelength, and/or quantified by high content imaging with the Image press Confocal (Molecular Devices, Sunnyvale, Calif.). Data analyses were performed with a customized multiwavelength cell-scoring application.

`COc1cc([C@H]2[C@H]3O[C@H](C[C@@H]3O)[C@@H]2C(=O)Nc2cccc(C(F)(F)F)c2)ccn1` (racemic) [Example 70, rac-(1R,2R,3S,4R,5S)-5-hydroxy-3-(2-methoxypyridin-4-yl)-N-(3-(trifluoromethyl)phenyl)-7-oxabicyclo[2.2.1]heptane-2-carboxamide]: where the note is “Chondrocyte, 288 h”, the IC50 was greater than 30 µM and the Emax worked out at 13%.

For the compound `Cn1cc([C@H]2[C@H]3O[C@H](C[C@@H]3O)[C@@H]2C(=O)Nc2cccc(C(F)(F)F)c2)c(C(F)(F)F)n1` (single isomer, unassigned) [Example 32a, (1R,2R,3S,4R,5S)-5-hydroxy-3-(1-methyl-3-(trifluoromethyl)-1H-pyrazol-4-yl)-N-(3-(trifluoromethyl)phenyl)-7-oxabicyclo[2.2.1]heptane-2-carboxamide or (1S,2S,3R,4S,5R)-5-hydroxy-3-(1-methyl-3-(trifluoromethyl)-1H-pyrazol-4-yl)-N-(3-(trifluoromethyl)phenyl)-7-oxabicyclo[2.2.1]heptane-2-carboxamide], the IC50 was determined as 6.6 µM and the “ALP in NHAC (% Efficacy)” value was 87%.

As for `COc1ccc(C(F)(F)F)cc1NC(=O)[C@@H]1[C@@H](c2cccc(C(F)(F)F)c2)[C@H]2O[C@@H]1C[C@@H]2O` (racemic) [Example 22, rac-(1R,2R,3S,4R,5S)-5-hydroxy-N-(2-methoxy-5-(trifluoromethyl)phenyl-3-(3-(trifluoromethyl)phenyl)-7-oxabicyclo[2.2.1]heptane-2-carboxamide], where the note is “Chondrocyte, 288 h”, the IC50 was 27 µM and the Emax is 75%.

On to `COc1cc(NC(=O)[C@@H]2[C@@H](c3cccc(C(F)(F)F)c3)[C@H]3O[C@@H]2C[C@@H]3O)cc(C(F)(F)F)c1` (racemic) [Example 21, rac-(1R,2R,3S,4R,5S)-5-hydroxy-N-(3-methoxy-5-trifluoromethyl)phenyl)-3-(3-(trifluoromethyl)phenyl)-7-oxabicyclo[2.2.1]heptane-2-carboxamide], for which, where the note is “Chondrocyte, 288 h”, the half-maximal inhibitory concentration (IC50) was 24 µM and the Emax worked out at 104%.

As to `CCOc1ccc(NC(=O)[C@@H]2[C@@H](c3cccc(C(F)(F)F)c3)[C@H]3O[C@@H]2C[C@@H]3O)cc1C(F)(F)F` (racemic) [Example 24, rac-(1R,2R,3S,4R,5S)—N-(4-ethoxy-3-trifluoromethyl)phenyl)-5-hydroxy-3-(3-(trifluoromethyl)phenyl)-7-oxabicyclo[2.2.1]heptane-2-carboxamide], where the note is “Chondrocyte, 288 h”, the half-maximal inhibitory concentration (IC50) came to 14 µM and the Emax stood at 108%.

`CC(C)n1cc([C@H]2[C@H]3O[C@H](C[C@@H]3O)[C@@H]2C(=O)Nc2ccc(C(F)(F)F)c(Cl)c2)c(C(F)(F)F)n1` (racemic) [Example 87, rac-(1R,2R,3S,4R,5S)—N-(3-chloro-4-trifluoromethyl)phenyl)-5-hydroxy-3-(1-isopropyl-3-(trifluoromethyl)-1H-pyrazol-4-yl)-7-oxabicyclo[2.2.1]heptane-2-carboxamide]: under “Chondrocyte, 288 h”, the IC50 was determined as 14 µM and the Emax stood at 64%.

As to `Cn1cc([C@H]2[C@H]3O[C@H](C[C@@H]3O)[C@@H]2C(=O)Nc2cc(F)cc(C(F)(F)F)c2)c(C(F)(F)F)n1` (racemic) [Example 45, rac-(1R,2R,3S,4R,5S)—N-(3-fluoro-5-(trifluoromethyl)phenyl)-5-hydroxy-3-(1-methyl-3-(trifluoromethyl)-1H-pyrazol-4-yl)-7-oxabicyclo[2.2.1]heptane-2-carboxamide], where the note is “Chondrocyte, 288 h”, the IC50 was determined as 7 µM and the Emax was 61%.

On to `Cc1ccc(NC(=O)[C@@H]2[C@@H](c3cn(C(C)C)nc3C(F)(F)F)[C@H]3O[C@@H]2C[C@@H]3O)cc1C(F)(F)F` (racemic) [Example 89, rac-(1R,2R,3S,4R,5S)-5-hydroxy-3-(1-isopropyl-3-trifluoromethyl)-1H-pyrazol-4-yl)-N-(4-methyl-3-(trifluoromethyl)phenyl)-7-oxabicyclo[2.2.1]heptane-2-carboxamide], for which, where the note is “Chondrocyte, 288 h”, the IC50 came to 19 µM and the Emax amounted to 40%.

Take `O=C(Nc1ccc(C(F)(F)F)c(Cl)n1)[C@@H]1[C@@H](c2cccc(C(F)(F)F)c2)[C@H]2O[C@@H]1C[C@@H]2O` (single isomer, unassigned) [Example 25b, (1R,2R,3S,4R,5S)—N-(6-chloro-5-(trifluoromethyl)pyridin-2-yl)-5-hydroxy-3-(3-(trifluoromethyl)phenyl)-7-oxabicyclo[2.2.1]heptane-2-carboxamide or (1S,2S,3R,4S,5R)—N-(6-chloro-5-(trifluoromethylpyridin-2-yl)-5-hydroxy-3-(3-(trifluoromethyl)phenyl)-7-oxabicyclo[2.2.1]heptane-2-carboxamide]: the half-maximal inhibitory concentration (IC50) is 0.84 µM and the “ALP in NHAC (% Efficacy)” value is 99%.

Take `O=C(Nc1cccc(C(F)(F)F)c1)[C@@H]1[C@@H](c2ccnc(C(F)(F)F)c2)[C@H]2O[C@@H]1C[C@@H]2O` (racemic) [Example 63, rac-(1R,2R,3S,4R,5S)-5-hydroxy-N-(3-(trifluoromethyl)phenyl)-3-(2-(trifluoromethyl)pyridin-4-yl)-7-oxabicyclo[2.2.1]heptane-2-carboxamide]: for the setting “Chondrocyte, 288 h”, the IC50 stood at 18 µM and the Emax came to 44%.

`N#Cc1ccc(C(F)(F)F)cc1NC(=O)[C@@H]1[C@@H](c2cccc(C(F)(F)F)c2)[C@H]2O[C@@H]1C[C@@H]2O` (racemic) [Example 48, rac-(1R,2R,3S,4R,5S)—N-(2-cyano-5-(trifluoromethyl)phenyl)-5-hydroxy-3-(3-(trifluoromethyl)phenyl)-7-oxabicyclo[2.2.1]heptane-2-carboxamide]: where the note is “Chondrocyte, 288 h”, the IC50 was 0.088 µM and the Emax was found to be 92%.

As for `Cn1cc([C@H]2[C@H]3O[C@H](C[C@@H]3O)[C@@H]2C(=O)Nc2cc(C(F)(F)F)ccc2C#N)c(C(F)(F)F)n1` (single isomer, unassigned) [Example 49b, (1R,2R,3S,4R,5N-(2-cyano-5-(trifluoromethyl)phenyl)-5-hydroxy-3-(1-methyl-3-(trifluoromethyl)-1H-pyrazol-4-yl)-7-oxabicyclo[2.2.1]heptane-2-carboxamide or (1S,2S,3R,4S,5R)—N-(2-cyano-5-(trifluoromethyl)phenyl)-5-hydroxy-3-(1-methyl-3-(trifluoromethyl)-1H-pyrazol-4-yl)-7-oxabicyclo[2.2.1]heptane-2-carboxamide], the IC50 was found to be 23 µM and the “ALP in NHAC (% Efficacy)” value is given as 54%.

Consider `Cn1nc(C(F)(F)F)cc1[C@H]1[C@H]2O[C@H](C[C@@H]2O)[C@@H]1C(=O)Nc1cc(C(F)(F)F)ccc1F` (racemic) [Example 75, rac-(1R,2R,3S,4R,5S)—N-(2-fluoro-S-trifluoromethyl)phenyl)-5-hydroxy-3-(1-methyl-3-(trifluoromethyl)-1H-pyrazol-5-yl)-7-oxabicyclo[2.2.1]heptane-2-carboxamide], for which, for the setting “Chondrocyte, 288 h”, the IC50 is greater than 30 µM and the Emax came out at 46%.

Turning to `Cn1cc([C@H]2[C@H]3O[C@H](C[C@@H]3O)[C@@H]2C(=O)Nc2cc(C(F)(F)F)ccc2C#N)c(C(F)(F)F)n1` (single isomer, unassigned) [Example 49a, (1R,2R,3S,4R,5N-(2-cyano-5-(trifluoromethyl)phenyl)-5-hydroxy-3-(1-methyl-3-(trifluoromethyl)-1H-pyrazol-4-yl)-7-oxabicyclo[2.2.1]heptane-2-carboxamide or (1S,2S,3R,4S,5R)—N-(2-cyano-5-(trifluoromethyl)phenyl)-5-hydroxy-3-(1-methyl-3-(trifluoromethyl)-1H-pyrazol-4-yl)-7-oxabicyclo[2.2.1]heptane-2-carboxamide], the IC50 turned out to be 1.9 µM and the “ALP in NHAC (% Efficacy)” value was 101%.

As to `COc1cc([C@H]2[C@H]3O[C@H](C[C@@H]3O)[C@@H]2C(=O)Nc2ccc(C)c(C(F)(F)F)c2)ccn1` (racemic) [Example 68, rac-(1R,2R,3,4R,5S)-5-hydroxy-3-(2-methoxypyridin-4-yl)-N-(4-methyl-3-(trifluoromethyl)phenyl)-7-oxabicyclo[2.2.1]heptane-2-carboxamide], for the setting “Chondrocyte, 288 h”, the IC50 is greater than 30 µM and the Emax stood at 31%.

As to `Cc1cc(NC(=O)[C@@H]2[C@@H](c3cccc(C(F)(F)F)c3)[C@H]3O[C@@H]2C[C@@H]3O)cc(C(F)(F)F)c1` (racemic) [Example 13, rac-(1R,2R,3S,4R,5S)-5-hydroxy-N-(3-methyl-5-(trifluoromethyl)phenyl)-3-(3-(trifluoromethyl)phenyl)-7-oxabicyclo[2.2.1]heptane-2-carboxamide], for the setting “Chondrocyte, 288 h”, the 50% inhibitory concentration (IC50) was 11 µM and the Emax came out at 105%.
